According to paper doi:10.1101/2023.07.03.547578v2 (bioRxiv, 2023):
Where two headings read alike, the source gives them in different places.

Key:
Stability in plasma = format: in vitro ADME; settings: abstract; method not given
Casq2-/- mice [1] = experiment: Catecholamine-induced arrhythmia challenge; format: in vivo, mouse; settings: 3 and 30 mg/kg i.p., ECG
[2] = ref Smith et al., 2021; cited from earlier work
RyR2 [3] = target: T1, RyR2 (Sus scrofa, UniProt A0A5G2R1W3); experiment: [3H]ryanodine binding assay in cardiac SR vesicles; set-up: species or system porcine
T1 sequence (A0A5G2R1W3 20-4900): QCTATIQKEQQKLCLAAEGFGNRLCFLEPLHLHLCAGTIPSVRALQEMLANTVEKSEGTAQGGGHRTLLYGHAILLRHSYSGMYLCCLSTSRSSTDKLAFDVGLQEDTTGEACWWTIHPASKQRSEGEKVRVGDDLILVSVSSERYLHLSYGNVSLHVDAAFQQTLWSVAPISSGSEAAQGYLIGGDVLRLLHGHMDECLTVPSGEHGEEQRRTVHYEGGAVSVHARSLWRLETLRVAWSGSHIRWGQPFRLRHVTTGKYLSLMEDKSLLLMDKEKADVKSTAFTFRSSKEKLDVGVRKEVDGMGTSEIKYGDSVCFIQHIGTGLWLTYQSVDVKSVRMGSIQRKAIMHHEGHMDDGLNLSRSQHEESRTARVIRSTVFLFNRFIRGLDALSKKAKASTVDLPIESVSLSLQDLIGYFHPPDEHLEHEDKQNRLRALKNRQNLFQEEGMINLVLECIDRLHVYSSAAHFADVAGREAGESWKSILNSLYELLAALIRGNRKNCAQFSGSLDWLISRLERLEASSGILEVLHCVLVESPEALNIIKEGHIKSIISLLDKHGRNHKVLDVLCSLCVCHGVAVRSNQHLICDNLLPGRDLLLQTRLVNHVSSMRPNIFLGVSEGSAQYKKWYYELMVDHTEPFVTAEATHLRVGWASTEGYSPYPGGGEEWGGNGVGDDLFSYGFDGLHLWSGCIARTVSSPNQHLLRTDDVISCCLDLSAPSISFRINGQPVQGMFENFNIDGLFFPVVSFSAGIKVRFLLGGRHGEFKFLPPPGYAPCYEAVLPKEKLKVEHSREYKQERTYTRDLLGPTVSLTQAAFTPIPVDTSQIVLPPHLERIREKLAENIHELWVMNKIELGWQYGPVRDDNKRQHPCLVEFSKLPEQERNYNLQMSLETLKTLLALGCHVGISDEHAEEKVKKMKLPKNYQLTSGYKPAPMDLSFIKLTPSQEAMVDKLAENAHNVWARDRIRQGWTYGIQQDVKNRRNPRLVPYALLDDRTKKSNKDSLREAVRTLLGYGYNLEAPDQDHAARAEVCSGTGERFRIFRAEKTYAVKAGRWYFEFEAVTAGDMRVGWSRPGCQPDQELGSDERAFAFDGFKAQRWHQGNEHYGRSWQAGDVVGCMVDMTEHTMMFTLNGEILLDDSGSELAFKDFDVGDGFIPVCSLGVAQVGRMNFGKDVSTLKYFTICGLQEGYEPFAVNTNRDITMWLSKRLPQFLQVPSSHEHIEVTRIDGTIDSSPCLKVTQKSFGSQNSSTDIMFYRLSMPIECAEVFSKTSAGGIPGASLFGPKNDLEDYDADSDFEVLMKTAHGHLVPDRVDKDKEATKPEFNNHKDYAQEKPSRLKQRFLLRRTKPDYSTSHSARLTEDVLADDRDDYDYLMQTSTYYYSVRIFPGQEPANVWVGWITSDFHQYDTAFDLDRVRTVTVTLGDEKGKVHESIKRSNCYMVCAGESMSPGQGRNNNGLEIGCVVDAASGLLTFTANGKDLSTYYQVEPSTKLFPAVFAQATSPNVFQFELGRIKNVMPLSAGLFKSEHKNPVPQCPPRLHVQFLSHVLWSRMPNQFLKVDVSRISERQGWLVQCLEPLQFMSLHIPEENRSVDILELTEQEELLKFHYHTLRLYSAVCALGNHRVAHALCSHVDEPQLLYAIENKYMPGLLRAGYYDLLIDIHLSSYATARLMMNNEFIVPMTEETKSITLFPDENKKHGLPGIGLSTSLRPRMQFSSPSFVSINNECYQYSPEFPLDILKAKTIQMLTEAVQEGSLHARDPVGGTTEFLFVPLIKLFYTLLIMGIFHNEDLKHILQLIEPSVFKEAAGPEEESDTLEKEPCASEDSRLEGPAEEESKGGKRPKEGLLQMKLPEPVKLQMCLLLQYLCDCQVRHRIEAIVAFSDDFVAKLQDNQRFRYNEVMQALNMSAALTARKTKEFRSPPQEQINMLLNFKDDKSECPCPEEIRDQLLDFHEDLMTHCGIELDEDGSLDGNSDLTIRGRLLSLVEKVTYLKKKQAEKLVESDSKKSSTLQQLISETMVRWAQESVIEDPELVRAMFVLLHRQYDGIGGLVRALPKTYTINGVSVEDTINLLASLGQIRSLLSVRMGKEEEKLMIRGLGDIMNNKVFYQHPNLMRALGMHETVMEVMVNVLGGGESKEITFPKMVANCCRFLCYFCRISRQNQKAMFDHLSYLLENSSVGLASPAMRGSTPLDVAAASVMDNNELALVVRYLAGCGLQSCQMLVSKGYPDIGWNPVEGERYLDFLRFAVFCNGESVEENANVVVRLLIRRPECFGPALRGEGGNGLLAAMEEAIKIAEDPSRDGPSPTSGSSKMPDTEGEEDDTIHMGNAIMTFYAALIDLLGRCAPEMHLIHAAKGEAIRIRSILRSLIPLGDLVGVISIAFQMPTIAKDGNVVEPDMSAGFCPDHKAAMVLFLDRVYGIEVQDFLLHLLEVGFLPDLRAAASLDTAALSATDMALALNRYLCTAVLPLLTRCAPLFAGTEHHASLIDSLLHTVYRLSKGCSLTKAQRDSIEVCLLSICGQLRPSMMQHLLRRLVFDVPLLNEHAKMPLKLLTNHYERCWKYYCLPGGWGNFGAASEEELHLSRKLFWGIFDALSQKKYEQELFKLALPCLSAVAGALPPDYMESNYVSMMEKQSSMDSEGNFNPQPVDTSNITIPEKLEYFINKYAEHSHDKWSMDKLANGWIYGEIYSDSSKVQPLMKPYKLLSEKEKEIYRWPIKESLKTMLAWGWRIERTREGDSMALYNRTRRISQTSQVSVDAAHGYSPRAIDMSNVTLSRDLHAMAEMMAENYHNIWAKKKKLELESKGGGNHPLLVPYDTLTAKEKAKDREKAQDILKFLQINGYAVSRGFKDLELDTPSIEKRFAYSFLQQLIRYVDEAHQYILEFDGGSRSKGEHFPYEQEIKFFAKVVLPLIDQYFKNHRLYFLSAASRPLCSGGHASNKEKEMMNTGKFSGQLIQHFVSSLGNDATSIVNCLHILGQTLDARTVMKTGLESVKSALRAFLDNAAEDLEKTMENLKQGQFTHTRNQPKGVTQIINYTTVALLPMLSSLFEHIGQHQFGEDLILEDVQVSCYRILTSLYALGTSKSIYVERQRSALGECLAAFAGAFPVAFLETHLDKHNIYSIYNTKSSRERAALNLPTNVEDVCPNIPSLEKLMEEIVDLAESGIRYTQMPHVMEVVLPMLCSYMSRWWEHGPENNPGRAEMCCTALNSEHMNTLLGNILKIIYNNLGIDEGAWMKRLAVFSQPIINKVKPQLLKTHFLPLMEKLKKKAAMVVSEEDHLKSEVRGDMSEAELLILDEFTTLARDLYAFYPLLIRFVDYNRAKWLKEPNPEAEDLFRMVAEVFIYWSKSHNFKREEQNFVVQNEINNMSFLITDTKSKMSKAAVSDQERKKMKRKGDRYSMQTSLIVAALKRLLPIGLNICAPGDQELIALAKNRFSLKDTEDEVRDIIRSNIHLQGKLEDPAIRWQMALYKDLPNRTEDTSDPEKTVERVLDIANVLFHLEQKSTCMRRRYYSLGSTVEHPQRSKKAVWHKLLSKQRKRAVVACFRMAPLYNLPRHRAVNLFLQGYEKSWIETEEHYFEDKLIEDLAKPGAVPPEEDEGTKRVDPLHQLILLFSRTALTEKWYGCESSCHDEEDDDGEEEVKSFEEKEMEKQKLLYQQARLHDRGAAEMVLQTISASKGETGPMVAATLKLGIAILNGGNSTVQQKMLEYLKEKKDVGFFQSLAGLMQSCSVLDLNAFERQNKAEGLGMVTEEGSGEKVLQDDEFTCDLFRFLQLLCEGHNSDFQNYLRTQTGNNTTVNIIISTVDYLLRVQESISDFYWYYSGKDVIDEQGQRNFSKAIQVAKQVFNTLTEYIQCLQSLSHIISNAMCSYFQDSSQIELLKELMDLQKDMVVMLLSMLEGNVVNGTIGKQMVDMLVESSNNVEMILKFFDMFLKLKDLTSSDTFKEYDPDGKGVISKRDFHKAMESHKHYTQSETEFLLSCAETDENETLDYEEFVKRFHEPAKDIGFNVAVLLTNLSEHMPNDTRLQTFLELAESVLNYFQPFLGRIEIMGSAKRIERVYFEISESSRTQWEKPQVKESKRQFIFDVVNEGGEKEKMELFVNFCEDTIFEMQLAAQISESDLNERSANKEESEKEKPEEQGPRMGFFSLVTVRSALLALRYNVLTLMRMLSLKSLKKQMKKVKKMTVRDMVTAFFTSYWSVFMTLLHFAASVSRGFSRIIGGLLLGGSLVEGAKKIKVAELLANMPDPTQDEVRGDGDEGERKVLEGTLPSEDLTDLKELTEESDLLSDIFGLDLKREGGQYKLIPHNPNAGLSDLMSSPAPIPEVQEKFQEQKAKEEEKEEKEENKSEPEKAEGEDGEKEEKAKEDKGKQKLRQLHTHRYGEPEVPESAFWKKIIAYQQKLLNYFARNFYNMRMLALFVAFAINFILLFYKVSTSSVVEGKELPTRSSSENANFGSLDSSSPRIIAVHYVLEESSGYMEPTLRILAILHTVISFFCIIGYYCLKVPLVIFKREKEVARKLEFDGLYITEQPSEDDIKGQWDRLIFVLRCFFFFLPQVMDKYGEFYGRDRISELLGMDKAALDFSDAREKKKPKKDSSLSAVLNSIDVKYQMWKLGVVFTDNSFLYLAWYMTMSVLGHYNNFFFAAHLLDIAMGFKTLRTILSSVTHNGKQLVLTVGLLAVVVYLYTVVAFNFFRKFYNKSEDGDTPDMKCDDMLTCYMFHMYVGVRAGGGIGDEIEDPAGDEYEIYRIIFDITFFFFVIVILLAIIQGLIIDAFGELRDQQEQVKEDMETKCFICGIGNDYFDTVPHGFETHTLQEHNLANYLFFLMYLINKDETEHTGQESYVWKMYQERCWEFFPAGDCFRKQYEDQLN

[4] = In vivo pharmacokinetic study; set-up: species or system mouse; settings: 3 mg/kg i.p.
[5] = tested on: RyR2-mediated spontaneous Ca2+ release in Casq2-/- cardiomyocytes; settings: read-out: IC50, intact cardiomyocyte assay; ref Batiste et al., 2019; cited from earlier work
Casq2-/- mice [6] = settings: ref Blackwell et al., 2023, cited from earlier work
RyR2 [7] = target: T1, RyR2; settings: read-out: IC50, ryanodine binding assay; ref Batiste et al., 2019; cited from earlier work
[8] = mice; ref Blackwell et al., 2023; cited from earlier work
insect RyR = settings: ref Ohshiro et al., 2012; cited from earlier work
RyR2 [9] = settings: ref Ohshiro et al., 2012; cited from earlier work

Molecule: CCCCC[C@@H]1OC(=O)[C@@H](C)N(C)C(=O)[C@H](CCCCC)OC(=O)[C@@H](C)N(C)C(=O)[C@H](CCCCC)OC(=O)[C@@H](C)N(C)C1=O (single isomer, unassigned) [ent-B1, ent-verticilide B1]
- stability in plasma (Stability in plasma): stable
- QRS width (Casq2-/- mice [1]): No changes
- heart rate (Casq2-/- mice [1]): No changes
- lipophilicity relative to ent-1 [2]: loss of lipophilicity
- IC50 (RyR2 [3]): 1930 nM
- maximal inhibition of [3H]ryanodine binding (RyR2 [3]; incomplete maximal inhibition vs DMSO): approximately 30%
- clinical observation during the PK study ([4]; CD1 mice, up to 480 min): no abnormality
- time of peak plasma concentration ([4]; mice, plasma): 10 min
- elimination half-life (t1/2) ([4]; mice, plasma, mean): 0.757 h

Molecule: ent-(+)-verticilide [ent-1]
- IC50 [5]: 100 nM
- VT incidence (Casq2-/- mice [6]; 30 mg/kg, same arrhythmia induction protocol): ~35%
- antiarrhythmic efficacy in vivo (Casq2-/- mice [6]; single dose study at 3 and 30 mg/kg i.p.): had antiarrhythmic efficacy
- IC50 (RyR2 [7]): 100 nM
- half-life (t1/2) [8]: 6.92 h

Molecule: verticilide B1
- activity against insect RyR (insect RyR): not active
- activity against RyR2 (RyR2 [9]): not active
